For the test, the target named is SIK2 (Homo sapiens (Human), UniProt Q9H0K1). Kind of test: SIK2 Enzymatic Assay Version 2 (High ATP). Type of test: biochemical. The conditions noted are these: 3 mM ATP and 200 μM HDAC5tide final, ADP-Glo Max luminescence. The essentials:
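Run at room temperature; SIK2 enzyme at 6 nM (2× final) preincubated with compound 30 min before reaction. ADP formation detected by ADP-Glo Max (2 h reagent, 1 h detection) with luminescence read-out.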

SIK2, sequence (Q9H0K1 whole entry, species assumed): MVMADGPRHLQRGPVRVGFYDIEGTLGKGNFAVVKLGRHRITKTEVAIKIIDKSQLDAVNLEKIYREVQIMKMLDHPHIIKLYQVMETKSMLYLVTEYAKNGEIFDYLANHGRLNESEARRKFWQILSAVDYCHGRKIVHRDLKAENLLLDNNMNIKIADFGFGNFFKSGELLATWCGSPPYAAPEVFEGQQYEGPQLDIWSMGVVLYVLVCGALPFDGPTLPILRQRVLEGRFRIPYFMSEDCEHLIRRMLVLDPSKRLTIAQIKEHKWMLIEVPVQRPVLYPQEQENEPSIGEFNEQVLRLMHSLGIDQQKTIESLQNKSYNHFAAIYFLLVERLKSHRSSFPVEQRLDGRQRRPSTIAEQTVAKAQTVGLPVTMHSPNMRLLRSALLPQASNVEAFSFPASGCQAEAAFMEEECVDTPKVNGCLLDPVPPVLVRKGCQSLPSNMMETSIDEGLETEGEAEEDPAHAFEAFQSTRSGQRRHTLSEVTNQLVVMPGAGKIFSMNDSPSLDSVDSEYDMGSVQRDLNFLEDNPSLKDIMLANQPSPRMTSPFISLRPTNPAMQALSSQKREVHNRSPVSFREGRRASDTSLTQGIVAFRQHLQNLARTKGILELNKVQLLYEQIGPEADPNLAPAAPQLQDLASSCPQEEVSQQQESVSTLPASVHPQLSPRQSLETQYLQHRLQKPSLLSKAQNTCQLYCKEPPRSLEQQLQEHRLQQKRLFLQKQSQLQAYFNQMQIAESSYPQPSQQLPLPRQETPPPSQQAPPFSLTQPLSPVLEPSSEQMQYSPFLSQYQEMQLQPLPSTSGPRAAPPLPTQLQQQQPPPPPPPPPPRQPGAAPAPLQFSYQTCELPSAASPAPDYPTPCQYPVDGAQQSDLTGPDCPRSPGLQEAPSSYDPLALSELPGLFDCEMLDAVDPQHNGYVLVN

On to `Cc1cc(Nc2cc3cc(-c4c(OC[C@H]5CCN5)noc4C)ccn3n2)nc(C)n1` [Example 320, 5-[3-[[(2R)-azetidin-2-yl]methoxy]-5-methyl-isoxazol-4-yl]-N-(2,6-dimethylpyrimidin-4-yl)pyrazolo[1,5-a]pyridin-2-amine], for which 50.8 nM corresponded to half-maximal inhibition (IC50).
In turn, `Cc1onc(OC[C@H]2C[C@@H](N)C2)c1-c1ccn2nc(NC(=O)C3CC3)cc2c1` [Example 319, N-[5-[3-[(3-aminocyclobutyl)methoxy]-5-methyl-isoxazol-4-yl]pyrazolo[1,5-a]pyridin-2-yl]cyclopropanecarboxamide] returned an IC50 of 51.8 nM.
As for `Cn1ncc(O[C@@H]2C[C@H]3COC[C@@H](C2)N3)c1-c1ccn2nc(NC(=O)C3CC3)cc2c1` [Example 43, exo-N-[5-[2-methyl-4-[[(1R,5S)-3-oxa-9-azabicyclo[3.3.1]nonan-7-yl]oxy]pyrazol-3-yl]pyrazolo[1,5-a]pyridin-2-yl]cyclopropanecarboxamide], half-maximal inhibition (IC50) required 17.3 nM.
In the case of `CN1CC[C@@H]1COc1cnn(C)c1-c1ccn2nc(NC(=O)[C@H]3C[C@@H]3C(F)(F)F)cc2c1` (racemic) [Example 70, trans-N-[5-[2-methyl-4-[((2R)-1-methylazetidin-2-yl)methoxy]pyrazol-3-yl]pyrazolo[1,5-a]pyridin-2-yl]-2-(trifluoromethyl)cyclopropanecarboxamide], the IC50 stood at 219 nM.
To `Cn1ncc(OC[C@H]2CCN2C2CC2)c1-c1ccn2nc(NC(=O)C3CC3)cc2c1` [Example 347, N-[5-[4-[[(2R)-1-cyclopropylazetidin-2-yl]methoxy]-2-methyl-pyrazol-3-yl]pyrazolo[1,5-a]pyridin-2-yl]cyclopropanecarboxamide] belongs 68 nM; to `CCN1CC[C@@H]1COc1cnn(C)c1-c1ccn2nc(NC(=O)[C@@H]3C[C@H]3C)cc2c1` [Example 66, (1R,2R)—N-[5-[4-[[(2R)-1-ethylazetidin-2-yl]methoxy]-2-methyl-pyrazol-3-yl]pyrazolo[1,5-a]pyridin-2-yl]-2-methyl-cyclopropanecarboxamide], 1.4 nM; to `CO[C@H]1CNC[C@H]1Oc1noc(C)c1-c1ccn2nc(NC(=O)C3CC3)cc2c1` [Example 88, N-[5-[3-[(3R,4S)-4-methoxypyrrolidin-3-yl]oxy-5-methyl-isoxazol-4-yl]pyrazolo[1,5-a]pyridin-2-yl]cyclopropanecarboxamide], 11.5 nM.
For `CCN1CC[C@@H]1COc1cnn(C)c1-c1ccn2nc(Nc3ccc4nc(C)cn4n3)cc2c1` [Example 174, N-[5-[4-[[(2R)-1-ethylazetidin-2-yl]methoxy]-2-methyl-pyrazol-3-yl]pyrazolo[1,5-a]pyridin-2-yl]-2-methyl-imidazo[1,2-b]pyridazin-6-amine], the IC50 was < 0.847 nM.
The same measure for `Cc1onc(OC[C@H](c2ccccn2)N(C)C)c1-c1ccn2nc(NC(=O)C3CC3)cc2c1` [Example 325, N-[5-[3-[(2S)-2-(dimethylamino)-2-(2-pyridyl)ethoxy]-5-methyl-isoxazol-4-yl]pyrazolo[1,5-a]pyridin-2-yl]cyclopropanecarboxamide]: 63.2 nM; for `CN1CC[C@H](Oc2cnn(C)c2-c2ccn3nc(Nc4ccc(C5CC5)nn4)cc3c2)C1` [Example 462, N-(6-cyclopropylpyridazin-3-yl)-5-[2-methyl-4-[(3S)-1-methylpyrrolidin-3-yl]oxy-pyrazol-3-yl]pyrazolo[1,5-a]pyridin-2-amine]: 86.5 nM.
To `Cn1ncc(CO[C@@H]2CCNC2)c1-c1ccn2nc(NC(=O)C3CC3)cc2c1` [Example 182, N-[5-[2-methyl-4-[[(3R)-pyrrolidin-3-yl]oxymethyl]pyrazol-3-yl]pyrazolo[1,5-a]pyridin-2-yl]cyclopropanecarboxamide] belongs 34.4 nM; to `CCN1CC[C@@H]1COc1cnn(C(F)F)c1-c1ccn2nc(Nc3cc(C)c(OC)nn3)cc2c1` [Example 483, 5-[2-(difluoromethyl)-4-[[(2R)-1-ethylazetidin-2-yl]methoxy]pyrazol-3-yl]-N-(6-methoxy-5-methyl-pyridazin-3-yl)pyrazolo[1,5-a]pyridin-2-amine], 0.9 nM.
Take `Cc1onc(OC[C@H]2COCCN2)c1-c1ccn2nc(NC(=O)C3CC3)cc2c1` [Example 496, N-[5-[5-methyl-3-[[(3R)-morpholin-3-yl]methoxy]isoxazol-4-yl]pyrazolo[1,5-a]pyridin-2-yl]cyclopropanecarboxamide]: the IC50 turned out to be 995 nM.
To `CN1CC[C@H](Oc2cnn(C)c2-c2ccn3nc(Nc4cc5ccccn5n4)cc3c2)C1` [Example 344, 5-[2-methyl-4-[(3S)-1-methylpyrrolidin-3-yl]oxy-pyrazol-3-yl]-N-pyrazolo[1,5-a]pyridin-2-yl-pyrazolo[1,5-a]pyridin-2-amine] belongs 56 nM; to `Cn1ncc(OC[C@H]2CCN2CCOC(F)(F)F)c1-c1ccn2nc(NC(=O)C3CC3)cc2c1` [Example 431, N-[5-[2-methyl-4-[[(2R)-1-[2-(trifluoromethoxy)ethyl]azetidin-2-yl]methoxy]pyrazol-3-yl]pyrazolo[1,5-a]pyridin-2-yl]cyclopropanecarboxamide], 181 nM; to `Cc1cc(Nc2cc3cc(-c4c(OC[C@H]5CCN5C)cnn4C(F)F)ccn3n2)nn(C)c1=O` [Example 33, 6-[[5-[2-(difluoromethyl)-4-[[(2R)-1-methylazetidin-2-yl]methoxy]pyrazol-3-yl]pyrazolo[1,5-a]pyridin-2-yl]amino]-2,4-dimethyl-pyridazin-3-one], 1.3 nM.
To `Cc1cnc(Nc2cc3cc(-c4c(OC[C@H]5CCN5C[C@H](C)O)cnn4C)ccn3n2)cn1` [Example 296, (2S)-1-[(2R)-2-[[1-methyl-5-[2-[(5-methylpyrazin-2-yl)amino]pyrazolo[1,5-a]pyridin-5-yl]pyrazol-4-yl]oxymethyl]azetidin-1-yl]propan-2-ol] belongs 6.2 nM; to `Cn1ncc(OC[C@H]2CCN2CC(C)(C)O)c1-c1ccn2nc(NC(=O)C3CC3)cc2c1` [Example 245, N-[5-[4-[[(2R)-1-(2-hydroxy-2-methyl-propyl)azetidin-2-yl]methoxy]-2-methyl-pyrazol-3-yl]pyrazolo[1,5-a]pyridin-2-yl]cyclopropanecarboxamide], 13.7 nM; to `C[C@H]1CN(C)[C@@H]1COc1cnn(C)c1-c1ccn2nc(NC(=O)C3CC3)cc2c1` [Example 12, N-[5-[4-[[(2S,3S)-1,3-dimethylazetidin-2-yl]methoxy]-2-methyl-pyrazol-3-yl]pyrazolo[1,5-a]pyridin-2-yl]cyclopropanecarboxamide], 117 nM.
To `COc1nnc(Nc2cc3cc(-c4c(OC[C@H]5CCN5C)cnn4C(F)F)ccn3n2)cc1C` [Example 97, 5-[2-(difluoromethyl)-4-[[(2R)-1-methylazetidin-2-yl]methoxy]pyrazol-3-yl]-N-(6-methoxy-5-methyl-pyridazin-3-yl)pyrazolo[1,5-a]pyridin-2-amine] belongs 2.9 nM.
With `COC(C)(C)CN1CC[C@@H]1COc1cnn(C)c1-c1ccn2nc(NC(=O)C3CC3)cc2c1` [Example 435, N-[5-[4-[[(2R)-1-(2-methoxy-2-methyl-propyl)azetidin-2-yl]methoxy]-2-methyl-pyrazol-3-yl]pyrazolo[1,5-a]pyridin-2-yl]cyclopropanecarboxamide], the IC50 is 79.7 nM.
With `Cc1cc(Nc2cc3cc(-c4c(OC[C@H]5C[C@H](O)C5)cnn4C)ccn3n2)nc(C)n1` [Example 438, 3-[[5-[2-[(2,6-dimethylpyrimidin-4-yl)amino]pyrazolo[1,5-a]pyridin-5-yl]-1-methyl-pyrazol-4-yl]oxymethyl]cyclobutanol], the half-maximal inhibitory concentration (IC50) came out at 88 nM.
The same measure for `Cc1cc(Nc2cc3cc(-c4c(O[C@H]5CCN(C)C5)cnn4C)ccn3n2)ncn1` [Example 265, 5-[2-methyl-4-[(3S)-1-methylpyrrolidin-3-yl]oxy-pyrazol-3-yl]-N-(6-methylpyrimidin-4-yl)pyrazolo[1,5-a]pyridin-2-amine]: 30.5 nM; for `Cc1cc(Nc2cc3cc(-c4c(OC[C@H]5CCN5C)cnn4C)ccn3n2)nc(C(F)(F)F)n1` [Example 63, 5-[2-methyl-4-[[(2R)-1-methylazetidin-2-yl]methoxy]pyrazol-3-yl]-N-[6-methyl-2-(trifluoromethyl)pyrimidin-4-yl]pyrazolo[1,5-a]pyridin-2-amine]: 1.1 nM; for `Cc1cc(Nc2cc3cc(-c4c(OC[C@H]5CCN5C)cnn4C(F)F)ccn3n2)nc(C)n1` [Example 140, 5-[2-(difluoromethyl)-4-[[(2R)-1-methylazetidin-2-yl]methoxy]pyrazol-3-yl]-N-(2,6-dimethylpyrimidin-4-yl)pyrazolo[1,5-a]pyridin-2-amine]: 1.2 nM.
With `Cc1onc(O[C@@H]2CNC[C@@H]2F)c1-c1ccn2nc(NC(=O)C3CC3)cc2c1` (racemic) [Example 208, (rac-cis)-N-[5-[3-(4-fluoropyrrolidin-3-yl)oxy-5-methyl-isoxazol-4-yl]pyrazolo[1,5-a]pyridin-2-yl]cyclopropanecarboxamide], the IC50 amounted to 11.5 nM.
To `Cc1onc(OC[C@H]2CN(C)CC(C)(C)O2)c1-c1ccn2nc(NC(=O)C3CC3)cc2c1` [Example 214, N-[5-[5-methyl-3-[[(2R)-4,6,6-trimethylmorpholin-2-yl]methoxy]isoxazol-4-yl]pyrazolo[1,5-a]pyridin-2-yl]cyclopropanecarboxamide] belongs 15.8 nM.
For the molecule `Cc1cnc(Nc2cc3cc(-c4c(OC[C@H]5CCN5)cnn4C)ccn3n2)cn1` [Example 393, 5-[4-[[(2R)-azetidin-2-yl]methoxy]-2-methyl-pyrazol-3-yl]-N-(5-methylpyrazin-2-yl)pyrazolo[1,5-a]pyridin-2-amine], the concentration for half-maximal inhibition (IC50) turned out to be 98.4 nM.
The same measure for `Cc1cc(Nc2cc3cc(-c4c(O[C@@H]5CN[C@H](C(F)F)C5)noc4C)ccn3n2)nc(C)n1` [Example 327, 5-[3-[(3S,5S)-5-(difluoromethyl)pyrrolidin-3-yl]oxy-5-methyl-isoxazol-4-yl]-N-(2,6-dimethylpyrimidin-4-yl)pyrazolo[1,5-a]pyridin-2-amine]: 42.8 nM.

Source of the values: patent US20240174662A1, “SMALL MOLECULE INHIBITORS OF SALT INDUCIBLE KINASES” (Janssen Biotech, Inc., priority 2021, published 2024).
